These results are taken from patent US20070082908A1, “Bicycle pyrazole derivative” (DAINIPPON SUMITOMO PHARMA CO., LTD., priority 2003, published 2007).

Counter-ions that a name gives are not always drawn.

The term IC50 denotes the midpoint of a concentration-inhibition curve.

T1 sequence (P27487 39-766 limits assumed): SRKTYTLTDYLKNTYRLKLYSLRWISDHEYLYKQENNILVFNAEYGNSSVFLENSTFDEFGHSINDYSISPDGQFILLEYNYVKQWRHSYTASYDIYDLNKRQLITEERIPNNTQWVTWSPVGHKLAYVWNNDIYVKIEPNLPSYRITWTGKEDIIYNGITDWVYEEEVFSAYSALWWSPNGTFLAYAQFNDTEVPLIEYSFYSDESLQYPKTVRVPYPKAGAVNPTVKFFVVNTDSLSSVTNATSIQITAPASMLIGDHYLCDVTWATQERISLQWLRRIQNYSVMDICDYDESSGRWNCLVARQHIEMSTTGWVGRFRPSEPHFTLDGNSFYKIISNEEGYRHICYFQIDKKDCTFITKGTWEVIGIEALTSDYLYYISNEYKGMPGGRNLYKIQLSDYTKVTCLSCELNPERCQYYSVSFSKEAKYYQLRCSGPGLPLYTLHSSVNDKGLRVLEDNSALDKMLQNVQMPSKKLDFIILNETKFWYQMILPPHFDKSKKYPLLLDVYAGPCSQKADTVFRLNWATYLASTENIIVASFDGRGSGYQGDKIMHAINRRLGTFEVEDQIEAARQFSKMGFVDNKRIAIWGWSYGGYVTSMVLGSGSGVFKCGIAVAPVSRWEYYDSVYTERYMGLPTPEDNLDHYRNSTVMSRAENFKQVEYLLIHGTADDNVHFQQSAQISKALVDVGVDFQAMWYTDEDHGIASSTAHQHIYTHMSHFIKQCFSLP

The test has as its target T1, human DPP IV (Homo sapiens, UniProt P27487).
T1 construct: Human serum containing DPP-IV enzyme was used in an experiment after being diluted with assay buffer; from tissue; host or cells: human serum (diluted 10-fold)
Description: In vitro DPP-IV inhibitory effect measurement test (human serum, fluorogenic substrate Gly-Pro-MCA). It counts as biochemical. To be noted: human serum diluted 10-fold as enzyme source; substrate Glycyl-L-Proline 4-Methyl-Coumaryl-7-Amide 100 μM; room temperature; read-out: Inhibitory activity against human DPP IV IC50. How it is done: In Vitro DPP-IV Inhibitory Effect Measurement Test
Human serum containing DPP-IV enzyme was used in an experiment after being diluted with assay buffer (25 mM Tris-HCl, 140 mM NaCl, 10 mM KCl, pH 7.9) (finally, diluted 10-fold). Each of solutions of each test compound having various concentrations was added to the diluted serum and the resulting mixture was incubated at room temperature. Then, a substrate (Glycyl-L-Proline 4-Methyl-Coumaryl-7-Amide, Peptide Laboratories Co., Ltd.) was added thereto to a final concentration of 100 μM and the reaction was carried out at room temperature. Acetic acid was added to the reaction mixture to a final concentration of 12.5% to terminate the reaction, and the intensity of fluorescence at an excitation wavelength of 360 nm and a measuring wavelength of 460 nm was measured by the use of a fluorescent plate reader. A compound concentration for 50% inhibition was calculated as an IC50 value from enzyme inhibitory activity values obtained by adding each test compound to a plurality of concentrations.
On to `Cn1ncn2nc(N3CCC[C@@H](N)C3)c(Cc3ccccc3Cl)c2c1=O` [Example 33, 2-[(3R)-3-Aminopiperidin-1-yl]-3-(2-chlorobenzyl)-5-methylpyrazolo[1,5-d][1,2,4]triazin-4(5H)-one hydrochloride], for which the half-maximal inhibitory concentration (IC50) stood at 12 nM. For the molecule `CCOC(=O)c1cn2nc(N3CCC[C@@H](N)C3)c(Cc3ccccc3Cl)c2c(=O)[nH]1` [Example 41, Ethyl 2-[(3R)-3-aminopiperidin-1-yl]-3-(2-chlorobenzyl)-4-oxo-4,5-dihydropyrazolo[1,5-a]pyrazine-6-carboxylate hydrochloride], the IC50 amounted to 2.1 nM.

With `N[C@@H]1CCCN(c2nn3ccn(CCc4ccccc4)c(=O)c3c2Cc2ccccc2Cl)C1` [Example 14], the IC50 was 61 nM. Next, `Cc1c(C)n2nc(N3CCC[C@@H](N)C3)c(Cc3ccccc3Cl)c2c(=O)n1CC(=O)c1ccccc1` [Example 18]: 45 nM; `N[C@@H]1CCCN(c2nn3cnn(CC(=O)c4ccccc4)c(=O)c3c2Cc2ccccc2Cl)C1` [Example 34, 2-[(3R)-3-Aminopiperidin-1-yl]-3-(2-chlorobenzyl)-5-(2-oxo-2-phenylethyl)pyrazolo[1,5-d][1,2,4]triazin-4(5H)-one hydrochloride]: 2.8 nM. For `CCc1cn2nc(N3CCC[C@@H](N)C3)c(Cc3ccccc3Cl)c2c(=O)n1CC(=O)c1ccccc1` [Example 26], the IC50 amounted to 28 nM. In the case of `COc1ccccc1C(=O)Cn1ccn2nc(N3CCC[C@@H](N)C3)c(Cc3ccccc3Cl)c2c1=O` [Example 9], the IC50 turned out to be 71 nM. In the case of `N[C@@H]1CCCN(c2nn3cc(-c4ccccc4)[nH]c(=O)c3c2Cc2ccccc2Cl)C1` [Example 5, 2-[(3R)-3-Aminopiperidin-1-yl]-3-(2-chlorobenzyl)-6-phenylpyrazolo[1,5-a]pyrazin-4(5H)-one hydrochloride], the IC50 worked out at 82 nM. Regarding `N[C@@H]1CCCN(c2nn3cc(C(=O)O)[nH]c(=O)c3c2Cc2ccccc2Cl)C1` [Example 17], the IC50 came to 1.6 nM. Consider `COc1cccc(C(=O)Cn2ccn3nc(N4CCC[C@@H](N)C4)c(Cc4ccccc4Cl)c3c2=O)c1` [Example 13], for which the IC50 came to 6.1 nM. Next, `N[C@@H]1CCCN(c2nn3cnn(Cc4nccc5ccccc45)c(=O)c3c2Cc2ccccc2Cl)C1` [Example 35, 2-[(3R)-3-Aminopiperidin-1-yl]-3-(2-chlorobenzyl)-5-(isoquinolin-1-ylmethyl)pyrazolo[1,5-d][1,2,4]triazin-4(5H)-one hydrochloride]: 2.3 nM; `COC(=O)Cc1c(C(=O)OC)[nH]c(=O)c2c(Cc3ccccc3Cl)c(N3CCC[C@@H](N)C3)nn12` [Example 38, Methyl 2-[(3R)-3-aminopiperidin-1-yl]-3-(2-chlorobenzyl)-7-(2-methoxy-2-oxoethyl)-4-oxo-4,5-dihydropyrazolo[1,5-a]pyrazine-6-carboxylate hydrochloride]: 9.6 nM; `CCOC(=O)c1cn2nc(N3CCC[C@@H](N)C3)c(Cc3cc(F)ccc3Cl)c2c(=O)[nH]1` [Example 32, Ethyl 2-[(3R)-3-aminopiperidin-1-yl]-3-(2-chloro-5-fluorobenzyl)-4-oxo-4,5-dihydropyrazolo[1,5-a]pyrazine-6-carboxylate methanesulfonate]: 0.9 nM. Next, `Cc1cn2nc(N3CCC[C@@H](N)C3)c(Cc3ccccc3Cl)c2c(=O)n1C` [Example 4, 2-[(3R)-3-Aminopiperidin-1-yl]-3-(2-chlorobenzyl)-5,6-dimethylpyrazolo[1,5-a]pyrazin-4(5H)-one hydrochloride]: 37 nM; `N#Cc1ccccc1Cn1ccn2nc(N3CCC[C@@H](N)C3)c(Cc3ccccc3Cl)c2c1=O` [Example 12]: 24 nM. As to `N[C@@H]1CCCN(c2nn3ccn(CC(=O)c4ccccc4)c(=O)c3c2Cc2ccccc2Cl)C1` [Example 8, 2-[(3R)-3-Aminopiperidin-1-yl]-3-(2-chlorobenzyl)-5-(2-oxo-2-phenylethyl)pyrazolo[1,5-a]pyrazin-4(5H)-one hydrochloride], the IC50 was 7 nM.

Turning to `N[C@@H]1CCCN(c2nn3cc[nH]c(=O)c3c2Cc2ccccc2Cl)C1` [Example 3, 2-[(3R)-3-Aminopiperidin-1-yl]-3-(2-chlorobenzyl)pyrazolo[1,5-a]pyrazin-4(5H)-one hydrochloride], the IC50 amounted to 30 nM. For the molecule `N[C@@H]1CCCN(c2nn3ccn(Cc4nccc5ccccc45)c(=O)c3c2Cc2ccccc2Cl)C1` [Example 10], the IC50 is 2.8 nM. With `N[C@@H]1CCCN(c2nn3cn[nH]c(=O)c3c2Cc2ccccc2Cl)C1` [Example 19], the 50% inhibitory concentration (IC50) was 15 nM. Next, `COC(=O)c1cn2nc(N3CCC[C@@H](N)C3)c(Cc3ccccc3Cl)c2c(=O)[nH]1` [Example 16]: 2.5 nM; `Cn1c(C#N)cn2nc(N3CCC[C@@H](N)C3)c(Cc3ccccc3Cl)c2c1=O` [Example 20]: 5 nM. The figure for `COC(=O)c1[nH]c(=O)c2c(Cc3ccccc3Cl)c(N3CCC[C@@H](N)C3)nn2c1C` [Example 1, Methyl 2-[(3R)-3-aminopiperidin-1-yl]-3-(2-chlorobenzyl)-7-methyl-4-oxo-4,5-dihydropyrazolo[1,5-a]pyrazine-6-carboxylate hydrochloride] is 20 nM; for `Cn1c(C(N)=O)cn2nc(N3CCC[C@@H](N)C3)c(Cc3ccccc3Cl)c2c1=O` [Example 21] it is 13 nM. The figure for `N[C@@H]1CCCN(c2nn3cc(C(=O)O)[nH]c(=O)c3c2Cc2cc(F)ccc2Cl)C1` [Example 7, 2-[(3R)-3-Aminopiperidin-1-yl]-3-(2-chloro-5-fluorobenzyl)-4-oxo-4,5-dihydropyrazolo[1,5-a]pyrazine-6-carboxylic acid methanesulfonate] is 0.7 nM; for `CC(C)Oc1cccc(C(=O)Cn2ccn3nc(N4CCC[C@@H](N)C4)c(Cc4ccccc4Cl)c3c2=O)c1` [Example 11] it is 25 nM.
